Calls of active or inactive are those of the source.
Key:
[1] = tested on: NCI-H1975; assay: Downregulation of ERAP2 expression in human NCI-H1975 cells; format: functional, cell-based; settings: tested as the 2H-labelled form
[2] = tested on: NCI-H1975; assay: Downregulation of Tomm40 expression in human NCI-H1975 cells; format: functional, cell-based; settings: tested as the 2H-labelled form
[3] = tested on: NCI-H1975; assay: Downregulation of LANCL1 expression in human NCI-H1975 cells; format: functional, cell-based; settings: tested as the 2H-labelled form
[4] = biological target: ALK tyrosine kinase receptor (Homo sapiens) (UniProt Q9UM73); assay: Inhibition of ALK phosphorylation in human NCI-H2228 cells upto 10 nM incubated for 2 to 4 hrs by Western blot analysis; format: cell-based; settings: time 2-4 hrs, tested as the 2H-labelled form
Sequence of ALK tyrosine kinase receptor (Homo sapiens) (Q9UM73 19-1620 limits assumed): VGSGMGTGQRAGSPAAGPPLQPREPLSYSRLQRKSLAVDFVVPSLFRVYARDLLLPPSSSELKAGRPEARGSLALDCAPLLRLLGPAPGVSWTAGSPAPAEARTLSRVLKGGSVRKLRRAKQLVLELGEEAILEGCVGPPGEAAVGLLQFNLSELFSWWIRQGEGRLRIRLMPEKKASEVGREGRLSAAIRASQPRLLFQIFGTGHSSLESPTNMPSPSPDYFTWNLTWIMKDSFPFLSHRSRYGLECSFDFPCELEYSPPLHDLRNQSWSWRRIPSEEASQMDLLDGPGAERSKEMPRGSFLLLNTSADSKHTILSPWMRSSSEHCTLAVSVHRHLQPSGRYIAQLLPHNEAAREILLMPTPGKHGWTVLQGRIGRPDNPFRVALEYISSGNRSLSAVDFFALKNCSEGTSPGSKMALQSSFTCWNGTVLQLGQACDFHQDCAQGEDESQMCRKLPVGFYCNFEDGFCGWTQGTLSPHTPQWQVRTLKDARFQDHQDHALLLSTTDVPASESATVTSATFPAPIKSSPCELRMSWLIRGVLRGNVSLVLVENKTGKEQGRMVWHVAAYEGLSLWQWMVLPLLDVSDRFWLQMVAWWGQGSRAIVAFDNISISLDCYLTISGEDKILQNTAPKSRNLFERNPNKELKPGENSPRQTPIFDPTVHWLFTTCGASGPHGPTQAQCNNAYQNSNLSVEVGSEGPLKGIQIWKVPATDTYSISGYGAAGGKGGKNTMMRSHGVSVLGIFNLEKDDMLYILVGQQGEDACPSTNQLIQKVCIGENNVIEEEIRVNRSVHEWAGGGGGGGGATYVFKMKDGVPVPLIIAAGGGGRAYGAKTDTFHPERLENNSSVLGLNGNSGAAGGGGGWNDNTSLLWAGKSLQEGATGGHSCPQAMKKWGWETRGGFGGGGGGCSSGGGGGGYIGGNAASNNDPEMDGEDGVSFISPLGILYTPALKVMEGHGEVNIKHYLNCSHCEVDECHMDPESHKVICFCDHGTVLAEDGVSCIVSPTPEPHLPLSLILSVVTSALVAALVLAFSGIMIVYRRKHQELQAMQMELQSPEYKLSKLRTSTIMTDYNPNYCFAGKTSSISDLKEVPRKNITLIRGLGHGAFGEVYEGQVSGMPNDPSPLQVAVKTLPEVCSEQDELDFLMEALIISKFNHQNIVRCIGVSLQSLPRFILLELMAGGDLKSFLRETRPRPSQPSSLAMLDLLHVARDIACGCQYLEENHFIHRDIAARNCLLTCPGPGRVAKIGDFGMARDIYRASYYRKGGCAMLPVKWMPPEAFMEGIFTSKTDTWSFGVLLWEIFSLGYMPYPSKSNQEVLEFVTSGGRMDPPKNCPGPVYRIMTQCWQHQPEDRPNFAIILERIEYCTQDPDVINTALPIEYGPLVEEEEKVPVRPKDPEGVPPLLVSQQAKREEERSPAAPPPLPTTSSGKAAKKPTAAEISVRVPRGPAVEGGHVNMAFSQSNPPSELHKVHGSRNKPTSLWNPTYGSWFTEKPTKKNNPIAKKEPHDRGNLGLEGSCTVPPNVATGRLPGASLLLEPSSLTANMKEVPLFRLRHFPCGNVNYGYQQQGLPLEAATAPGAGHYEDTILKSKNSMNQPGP

[5] = biological target: ALK tyrosine kinase receptor (Homo sapiens) (UniProt Q9UM73); assay: Inhibition of ALK in human NCI-H2228 cells assessed as decrease in pAKT level upto 10 nM incubated for 2 to 4 hrs by Western blot analysis; format: cell-based; settings: time 2-4 hrs, tested as the 2H-labelled form
[6] = biological target: ALK tyrosine kinase receptor (Homo sapiens) (UniProt Q9UM73); assay: Inhibition of ALK in human NCI-H2228 cells assessed as decrease in pERK level upto 10 nM incubated for 2 to 4 hrs by Western blot analysis; format: cell-based; settings: time 2-4 hrs, tested as the 2H-labelled form
[7] = biological target: ALK tyrosine kinase receptor (Homo sapiens) (UniProt Q9UM73); assay: Inhibition of ALK phosphorylation in human NCI-H2228 cells at 25 to 50 nM incubated for 12 hrs by immunofluorescence based analysis; format: cell-based; settings: dose 25-50 nM, tested as the 2H-labelled form
[8] = tested on: NCI-H1975; assay: Induction of cell cycle arrest in human NCI-H1975 cells assessed as decrease in cyclin D1 level upto 10 nM incubated for 2 to 4 hrs by Western blot analysis; format: functional, cell-based; settings: time 2-4 hrs, tested as the 2H-labelled form
[9] = tested on: NCI-H1975; assay: Induction of DNA damage in human NCI-H1975 cells at 1 nM incubated for 24 hrs by immunofluorescence based analysis; format: functional, cell-based; settings: tested as the 2H-labelled form
[10] = tested on: NCI-H1975; assay: Induction of DNA damage in human NCI-H1975 cells assessed as increase in pH2AX level upto 10 nM incubated for 2 to 4 hrs by Western blot analysis; format: functional, cell-based; settings: time 2-4 hrs, tested as the 2H-labelled form
[11] = tested on: NCI-H1975; assay: Induction of apoptosis in human NCI-H1975 cells assessed as decrease in BCL-2 level upto 10 nM incubated for 2 to 4 hrs by Western blot analysis; format: functional, cell-based; settings: time 2-4 hrs, tested as the 2H-labelled form
[12] = tested on: NCI-H1975; assay: Induction of apoptosis in human NCI-H1975 cells assessed as decrease in BCL-XL level upto 10 nM incubated for 2 to 4 hrs by Western blot analysis; format: functional, cell-based; settings: time 2-4 hrs, tested as the 2H-labelled form
[13] = tested on: NCI-H1975; assay: Induction of apoptosis in human NCI-H1975 cells assessed as increase in cleaved caspase-3 level upto 10 nM incubated for 2 to 4 hrs by Western blot analysis; format: functional, cell-based; settings: time 2-4 hrs, tested as the 2H-labelled form
[14] = tested on: NCI-H1975; assay: Induction of mitochondrial membrane potential in human NCI-H1975 cells assessed as reduction in red fluorescence at 5 nM by JC-1 dye based analysis; format: functional, cell-based; settings: tested as the 2H-labelled form
[15] = tested on: NCI-H1975; assay: Induction of mitochondrial membrane potential in human NCI-H1975 cells assessed as increase in green fluorescence at 5 nM by JC-1 dye based analysis; format: functional, cell-based; settings: tested as the 2H-labelled form
[16] = tested on: NCI-H1975; assay: Anti-migration activity in human NCI-H1975 cells incubated for 24 hrs by scratch-wound assay; format: functional, cell-based; settings: dose 5.0 nM, tested as the 2H-labelled form
[17] = tested on: NCI-H1975; assay: Anti-invasive activity in human NCI-H1975 cells incubated for 48 hrs by transwell assay; format: functional, cell-based; settings: dose 1-10 nM, tested as the 2H-labelled form
[18] = tested on: NCI-H1975; assay: Anti-migration activity in human NCI-H1975 cells assessed as increase in E-cadherin level upto 10 nM incubated for 2 to 4 hrs by Western blot analysis; format: functional, cell-based; settings: time 2-4 hrs, tested as the 2H-labelled form
[19] = tested on: NCI-H1975; assay: Anti-migration activity in human NCI-H1975 cells assessed as decrease in N-cadherin level upto 10 nM incubated for 2 to 4 hrs by Western blot analysis; format: functional, cell-based; settings: time 2-4 hrs, tested as the 2H-labelled form
[20] = tested on: NCI-H1975; assay: Inhibition of colony formation in human NCI-H1975 cells assessed as reduction in tumor cell number incubated for 24 hrs followed by medium replacement daily without compound measured after 14 days by crystal violet staining based analysis; format: functional; settings: dose 1-10 nM, tested as the 2H-labelled form
[21] = tested on: NCI-H1975; assay: Inhibition of colony formation in human NCI-H1975 cells assessed as reduction in tumor cell size incubated for 24 hrs followed by medium replacement daily without compound measured after 14 days by crystal violet staining based analysis; format: functional; settings: dose 1-10 nM, tested as the 2H-labelled form
[22] = tested on: Mus musculus; assay: In vivo inhibition of EGFR phosphorylation in human NCI-H1975 cells xenografted in BALB/c-nu mouse at 15 to 30 mg/kg, po administered daily orally for 21 days by IHC analysis; format: functional, organism-based; settings: dose 15-30 mg/kg, time 21.0 day, tested as the 2H-labelled form

C=CC(=O)Nc1cc(Nc2ncc(Cl)c(Nc3ccccc3[S+]([O-])CC)n2)c(OC)cc1N(C)CCN(C)C (single isomer, unassigned; (-))
active: Activity [1] | Activity [2] | Activity [3] | inhibition [4] | inhibition [5] | inhibition [6] | inhibition [7] | Activity [8] | Activity [9] | Activity [10] | Activity [11] | Activity [12] | Activity [13] | Activity [14] | Activity [15] | Activity [16] Dose-dependent-effect | Activity [17] Dose-dependent-effect | Activity [18] | Activity [19] | inhibition [20] Dose-dependent-effect | inhibition [21] Dose-dependent-effect | inhibition [22] Active; Inhibitory Effect Was Observed Superior To That Of Osimertinib

Source: ChEMBL document CHEMBL6078700, “Synthesis of novel deuterated EGFR/ALK dual-target inhibitors and their activity against non-small cell lung cancer” (Eur J Med Chem, 2025)
